Experimental data as given in patent US8598190B2, “3H-imidazo [4, 5-C] pyridine-6-carboxamides as anti-inflammatory agents” (Boehringer Ingelheim International GmbH, priority 2008, dated 2013).

Molecular target: T1, recombinant human mPGES-1 (Homo sapiens, UniProt O14684)
T1 construct: made in house; host or cells: Rosetta E. coli (microsomal/membrane fraction)
T1 sequence (O14684 1-152): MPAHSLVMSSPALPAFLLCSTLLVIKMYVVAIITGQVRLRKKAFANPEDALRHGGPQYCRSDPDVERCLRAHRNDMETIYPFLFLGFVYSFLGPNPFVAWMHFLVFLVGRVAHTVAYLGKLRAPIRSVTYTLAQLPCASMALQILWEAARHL
Experiment: mPGES-1 inhibition test (microsomes, HTRF detection of PGE2)
Type: biochemical
Experimental: Microsomes from Rosetta E. coli bacteria expressing recombinant human mPGES-1 is dissolved in 0.1 M KPi pH 7.4 buffer containing 2.5 mM GSH. 50 μl of the enzyme is subsequently dispensed in a 384-well plate. 0.5 μl of the inhibitor dissolved in DMSO at is thereafter added to each well and incubated for 25 minutes at room temperature.
Subsequently, 2 μl of PGH2 dissolved in an appropriate solvent is added to each well and after one minute the acidified stop solution containing FeCl2 is added. 4 μl of the total volume is transferred to a separate plate and diluted 750-fold in two separate steps before HTRF detection of PGE2.
The HTRf detection is performed by the use of a commercially available kit from CisBio essentially according to the manufacturer's protocol. Briefly, 10 μl of the diluted sample is transferred to a white 384-well plate. 5 μl of d2 and 5 μl Eu3+-Cryptate labeled anti-PGE2 is added to each well containing samples by the use of a Multidrop. The plate is covered with a plastic self-adhesive film, centrifuged at 1200 rpm for 1 minute and subsequently stored at +4° C. over night.
After over night incubation the fluorescence is measured by the use of an appropriate microplate reader. The fluorescence of europium cryptate, and d2 are measured using the following excitation and emission wavelength, europium cryptate: λmax^ex=307 nm, λmax^em=620 nm and d2: λmax^ex=620 nm, λmax^em=665 nm), respectively. The extent of the specific FRET is measured as a ratio of the emission intensity at 665 nm vs. that at 620 nm. A standard curve using synthetic PGE2 is used to quantify the amount of PGE2 in unknown samples.

Row | inhibition at 10 µM | % inhib. (percentage inhibition of mPGES-1 at 10 μM (unless otherwise specified)) | SMILES
1 | 100% | – | Cc1cc(NC(=O)c2cc3[nH]c(Nc4c(Cl)cccc4Cl)nc3cn2)ncc1Cl [Example 718, 2-(2,6-Dichlorophenylamino)-N-(5-chloro-4-methyl-pyridin-2-yl)-1H-imidazo[4,5-c]pyridine-6-carboxamide]
2 | 100% | – | Cc1cc(C(F)(F)F)cc(NC(=O)c2cc3[nH]c(Nc4c(Cl)cccc4Cl)nc3cn2)n1 [Example 723, 2-(2,6-Dichlorophenylamino)-N-(6-methyl-4-trifluoromethyl-pyridin-2-yl)-1H-imidazo[4,5-c]pyridine-6-carboxamide]
3 | 100% | – | O=C(Nc1cc(C(F)(F)F)ccn1)c1cc2[nH]c(Nc3c(Cl)cc(F)cc3Cl)nc2cn1 [Example 730, 2-(2,6-Dichloro-4-fluoro-phenylamino)-N-(4-trifluoromethyl-pyridin-2-yl)-1H-imidazo[4,5-c]pyridine-6-carboxamide]
4 | 100% | – | O=C(Nc1ccc(C2CC2)cn1)c1cc2[nH]c(Nc3c(Cl)cccc3Cl)nc2cn1 [Example 725, 2-(2,6-Dichlorophenylamino)-N-(5-cyclopropyl-pyridin-2-yl)-1H-imidazo[4,5-c]pyridine-6-carboxamide]
5 | 97% | – | O=C(NCc1ncccc1C(F)(F)F)c1cc2[nH]c(Nc3c(Cl)cccc3Cl)nc2cn1 [Example 509, 2-(2,6-Dichlorophenylamino)-N-((3-trifluoromethyl-pyridin-2-yl)methyl)-1H-imidazo[4,5-c]pyridine-6-carboxamide]
6 | 94% | – | Cn1c(Nc2c(Cl)cccc2Cl)nc2cc(C(=O)Nc3cc(C4CC4)ccn3)ncc21 [Example 462, N-(4-Cyclopropylpyridin-2-yl)-2-(2,6-dichlorophenylamino)-3-methyl-3H-imidazo[4,5-c]pyridine-6-carboxamide]
7 | 100% | – | O=C(Nc1cc(C(F)(F)F)ccn1)c1cc2[nH]c(Nc3c(Cl)cccc3Cl)nc2cn1 [Example 414, 2-(2,6-Dichlorophenylamino)-N-(4-trifluoromethyl-pyridin-2-yl)-1H-imidazo[4,5-c]pyridine-6-carboxamide]
8 | 100% | – | Cc1cc(NC(=O)c2cc3[nH]c(Nc4c(Cl)cccc4Cl)nc3cn2)ncc1F [Example 719, 2-(2,6-Dichlorophenylamino)-N-(5-fluoro-4-methyl-pyridin-2-yl)-1H-imidazo[4,5-c]pyridine-6-carboxamide]
9 | 100% | – | Cn1c(Nc2c(Cl)cccc2Cl)nc2cc(C(=O)NC3CCC4(CC3)CC4)ncc21 [Example 425, 2-(2,6-Dichlorophenylamino)-3-methyl-N-(spiro[2.5]octan-6-yl)-3H-imidazo[4,5-c]-pyridine-6-carboxamide]
10 | 100% | – | O=C(Nc1ccc(Br)cc1)c1cc2[nH]c(Nc3c(Cl)cncc3Cl)nc2cn1 [Example 732, 2-(3,5-Dichloro-pyridin-4-yl-amino)-N-(4-bromo-phenyl)-1H-imidazo[4,5-c]pyridine-6-carboxamide]
11 | 100% | – | Cn1c(Nc2c(F)cccc2Cl)nc2cc(C(=O)NC3CCC4(CC3)CC4)ncc21 [Example 417, 2-(2-Chloro-6-fluoro-phenylamino)-3-methyl-N-(spiro[2.5]octan-6-yl)-3H-imidazo[4,5-c]pyridine-6-carboxamide]
12 | 100% | – | O=C(Nc1cc(C(F)(F)F)ccn1)c1cc2[nH]c(Nc3c(F)cc(F)cc3Cl)nc2cn1 [Example 731, 2-(2-Chloro-4,6-difluoro-phenylamino)-N-(4-trifluoromethyl-pyridin-2-yl)-1H-imidazo[4,5-c]pyridine-6-carboxamide]
13 | 98% | – | Cc1cnc(NC(=O)c2cc3[nH]c(Nc4c(Cl)cccc4Cl)nc3cn2)cc1Cl [Example 427, N-(4-Chloro-5-methyl-pyridin-2-yl)-2-(2,6-dichlorophenylamino)-1H-imidazo[4,5-c]pyridine-6-carboxamide]
14 | – | 97% | Cn1c(Nc2c(Cl)cccc2Cl)nc2cc(C(=O)Nc3ccc(Br)cc3)cnc21 [Example 463]
15 | 100% | – | Cn1c(Nc2c(Cl)cncc2Cl)nc2cc(C(=O)N[C@H]3CC[C@H](C(F)(F)F)CC3)ncc21 [Example 515, 2-(3,5-Dichloropyridin-4-ylamino)-3-methyl-N-((1r,4r)-4-trifluoromethyl-cyclohexyl)-3H-imidazo[4,5-c]pyridine-6-carboxamide]
16 | 99% | – | Cc1cc(C(F)(F)F)cc(NC(=O)c2cc3[nH]c(Nc4c(Cl)cncc4Cl)nc3cn2)n1 [Example 733, 2-(3,5-Dichloro-pyridin-4-yl-amino)-N-(6-methyl-4-trifluoromethyl-pyridin-2-yl)-1H-imidazo[4,5-c]pyridine-6-carboxamide]
17 | 100% | – | Cn1c(Nc2c(Cl)cccc2Cl)nc2cc(C(=O)NC3CCCCC3)ncc21 [Example 487, N-Cyclohexyl-2-(2,6-dichlorophenylamino)-3-methyl-3H-imidazo[4,5-c]pyridine-6-carboxamide]
18 | 100% | – | O=C(Nc1ccc(C(F)(F)F)cn1)c1cc2[nH]c(Nc3c(Cl)cccc3Cl)nc2cn1 [Example 720, 2-(2,6-Dichlorophenylamino)-N-(5-trifluoromethyl-pyridin-2-yl)-1H-imidazo[4,5-c]pyridine-6-carboxamide]
19 | 86% | – | O=C(Nc1cc(OC2CCOC2)ccn1)c1cc2[nH]c(Nc3c(Cl)cccc3Cl)nc2cn1 (stereo not drawn) [Example 495, 2-(2,6-Dichlorophenylamino)-N-(4-(tetrahydrofuran-3-yl-oxy)-pyridin-2-yl)-1H-imidazo[4,5-c]pyridine-6-carboxamide]
20 | 100% | – | O=C(Nc1cc(C2CCC2)ccn1)c1cc2[nH]c(Nc3c(Cl)cncc3Cl)nc2cn1 [Example 738, 2-(3,5-Dichloro-pyridin-4-yl-amino)-N-(4-cyclobutyl-pyridin-2-yl)-1H-imidazo[4,5-c]pyridine-6-carboxamide]
21 | 100% | – | Cn1c(Nc2c(Cl)cccc2Cl)nc2cc(C(=O)Nc3cc(C(F)(F)F)ccn3)ncc21 [Example 364, 2-(2,6-Dichlorophenylamino)-3-methyl-N-(4-trifluoromethyl-pyridin-2-yl)-3H-imidazo[4,5-c]pyridine-6-carboxamide]
22 | 98% | – | O=C(Nc1cc(C2CC2)ccn1)c1cc2[nH]c(Nc3c(Cl)cccc3Cl)nc2cn1 [Example 445, N-(4-Cyclopropylpyridin-2-yl)-2-(2,6-dichlorophenylamino)-1H-imidazo[4,5-c]-pyridine-6-carboxamide]
23 | 100% | – | Cn1c(Nc2c(F)cccc2Cl)nc2cc(C(=O)NCc3ncccc3C(F)(F)F)ncc21 [Example 504, 2-(2-Chloro-6-fluorophenylamino)-3-methyl-N-((3-trifluoromethyl-pyridin-2-yl)-methyl)-3H-imidazo[4,5-c]pyridine-6-carboxamide]
24 | 99% | – | O=C(NC1CCC2(CC1)CC2)c1cc2[nH]c(Nc3c(Cl)cccc3Cl)nc2cn1 [Example 451, 2-(2,6-Dichlorophenylamino)-N-(spiro[2.5]octan-6-yl)-1H-imidazo[4,5-c]pyridine-6-carboxamide]
25 | 100% | – | Cn1c(Nc2c(F)cccc2Cl)nc2cc(C(=O)NCc3ncccc3C3CC3)ncc21 [Example 522, 2-(2-Chloro-6-fluorophenylamino)-N-((3-cyclopropylpyridin-2-yl)-methyl)-3-methyl-3H-imidazo[4,5-c]pyridine-6-carboxamide]
26 | 99% | – | Cn1c(Nc2cnccc2C(F)(F)F)nc2cc(C(=O)Nc3cc(C(F)(F)F)ccn3)ncc21 [Example 734, 2-(4-Trifluoromethyl-pyridin-3-ylamino)-3-methyl-N-(4-trifluoromethyl-pyridin-2-yl)-3H-imidazo[4,5-c]pyridine-6-carboxamide]
27 | 100% | – | Cn1c(Nc2c(Cl)cccc2Cl)nc2cc(C(=O)NC3CCC(C)(C)CC3)ncc21 [Example 406, 2-(2,6-Dichlorophenylamino)-N-(4,4-dimethylcyclohexyl)-3-methyl-3H-imidazo[4,5-c]pyridine-6-carboxamide]
28 | 100% | – | Cc1cnc(NC(=O)c2cc3nc(Nc4c(Cl)cccc4Cl)n(C)c3cn2)cc1C [Example 724, 2-(2,6-Dichlorophenylamino)-3-methyl-N-(4,5-dimethyl-pyridin-2-yl)-3H-imidazo[4,5-c]pyridine-6-carboxamide]
29 | 98% | – | O=C(N[C@H]1CC[C@H](C(F)(F)F)CC1)c1cc2[nH]c(Nc3c(Cl)cccc3Cl)nc2cn1 [Example 481, 2-(2,6-Dichlorophenylamino)-N-((1r,4r)-4-trifluoromethyl-cyclohexyl)-1H-imidazo[4,5-c]pyridine-6-carboxamide]
30 | 100% | – | Cn1c(Nc2c(Cl)cccc2Cl)nc2cc(C(=O)N[C@H]3CC[C@H](C(F)(F)F)CC3)ncc21 [Example 424, 2-(2,6-Dichlorophenylamino)-3-methyl-N-((1r,4r)-4-trifluoromethyl-cyclohexyl)-3H-imidazo[4,5-c]pyridine-6-carboxamide]
